Assay results reported in patent US12364733B1, “Method for treating septic shock” (Inotrem, priority 2018, dated 2025).

System: septic shock patients
Assay: Phase IIa clinical trial with nangibotide in septic shock patients: SOFA score evolution
Assay type: in vivo, human
Description: This was a randomized, double-blind, two-stage, placebo-controlled study. As described in FIG. 7, the study was composed of 2 stages with a similar treatment regimen, in which 0.3, 1.0 or 3.0 mg/kg/h of nangibotide (corresponding to peptide LR12, having an amino acid sequence as set forth in SEQ ID NO: 9, also known as motrem) was tested versus placebo. All patients with a diagnosis of septic shock were considered for study participation. All potential study patients underwent standard care management procedures. Patients with evidence of septic shock according to the Sepsis-3 definition (Singer et al, JAMA 2016) were considered for inclusion (i.e., patients suffering from sepsis and having (i) persisting hypotension requiring vasopressors to maintain their mean arterial pressure ≥65 mm Hg and (ii) a serum lactate level >2 mmol/L (18 mg/dL) despite adequate volume resuscitation).
After screening for eligibility, patients were randomized to one of the treatment arms. Then, they received either a 5 mg/kg loading dose of nangibotide over 15 minutes followed by a continuous intravenous (i.v.) infusion of nangibotide or a matching placebo on top of standard of care. Treatment with study drug was initiated as early as possible, but no later than 24 hours after the onset of septic shock, defined by the start of vasopressor therapy. Patients were treated until 12 (±2) hours after the resolution of their septic shock (defined as vasopressor withdrawal) with a maximum treatment duration of 5 days (120 hours).
Adverse events (AEs) were coded using the MedDRA dictionary version 18.1. Treatment-emergent adverse events (TEAEs) were summarized and listed. Analysis was performed in 49 septic shock patients. The demographic and baseline characteristics were summarized in a descriptive fashion within each population: categorical variables were summarized by contingency tables (frequencies and percentages). sTREM-1 levels at day 1 were also described (mean, standard deviation, standard error, median, quartiles and range, minimum and maximum values). Mortality rates were reported by frequency and percentage. For continuous endpoints, i.e., the sequential organ failure assessment (SOFA), missing data were imputed using LOCF (Last Observation Carry-Forward). For time-to-event analyses, i.e., duration of invasive mechanical ventilation (IMV), duration of continuous renal replacement therapy (CRRT), survival, censored data techniques were utilized. In addition, a sensitivity analysis of time to event data (except survival) was performed using censoring at maximum limit for the corresponding observation period (i.e., either day 28 or day 90). […] The following comparisons were made: each nangibotide dose arm to placebo, all nangibotide doses combined versus placebo, and dose-response using an ordinal trend test. Exploratory composite endpoint: incidence (number and proportion) of patients alive at day 28 and free of vasopressor, free of IMV and free of CRRT were summarized by treatment and compared between treatments with a Fisher's exact test. For pharmacodynamic markers, log transformed data were represented as percentage change from baseline at day 5 or End of Infusion (EOI) if end of infusion was stopped before day 5. […] “All nangibotide” refers to analyses obtained by pooling data from 0.3, 1 and 3 mg/kg/h nangibotide-treated groups.

[1] = patients with high sTREM-1 at baseline (above median 433 pg/mL), Day 1, 0.3 mg/kg/h
[2] = patients with high sTREM-1 at baseline (above median 433 pg/mL), Day 1, 1.0 mg/kg/h
[3] = patients with high sTREM-1 at baseline (above median 433 pg/mL), Day 1, 3.0 mg/kg/h
[4] = patients with high sTREM-1 at baseline (above median 433 pg/mL), Day 1, all nangibotide doses pooled
[5] = patients with high sTREM-1 at baseline (above median 433 pg/mL), Day 2, 0.3 mg/kg/h
[6] = patients with high sTREM-1 at baseline (above median 433 pg/mL), Day 2, 1.0 mg/kg/h
[7] = patients with high sTREM-1 at baseline (above median 433 pg/mL), Day 2, 3.0 mg/kg/h
[8] = patients with high sTREM-1 at baseline (above median 433 pg/mL), Day 2, all nangibotide doses pooled
[9] = patients with high sTREM-1 at baseline (above median 433 pg/mL), Day 3, 0.3 mg/kg/h
[10] = patients with high sTREM-1 at baseline (above median 433 pg/mL), Day 3, 1.0 mg/kg/h
[11] = patients with high sTREM-1 at baseline (above median 433 pg/mL), Day 3, 3.0 mg/kg/h
[12] = patients with high sTREM-1 at baseline (above median 433 pg/mL), Day 3, all nangibotide doses pooled
[13] = patients with high sTREM-1 at baseline (above median 433 pg/mL), Day 4, 0.3 mg/kg/h
[14] = patients with high sTREM-1 at baseline (above median 433 pg/mL), Day 4, 1.0 mg/kg/h
[15] = patients with high sTREM-1 at baseline (above median 433 pg/mL), Day 4, 3.0 mg/kg/h
[16] = patients with high sTREM-1 at baseline (above median 433 pg/mL), Day 4, all nangibotide doses pooled
[17] = patients with high sTREM-1 at baseline (above median 433 pg/mL), Day 5, 1.0 mg/kg/h
[18] = patients with low sTREM-1 at baseline (below median 433 pg/mL), Day 1, 0.3 mg/kg/h
[19] = patients with low sTREM-1 at baseline (below median 433 pg/mL), Day 1, 1.0 mg/kg/h
[20] = patients with low sTREM-1 at baseline (below median 433 pg/mL), Day 1, 3.0 mg/kg/h
[21] = patients with low sTREM-1 at baseline (below median 433 pg/mL), Day 1, all nangibotide doses pooled
[22] = patients with low sTREM-1 at baseline (below median 433 pg/mL), Day 2, 0.3 mg/kg/h
[23] = patients with low sTREM-1 at baseline (below median 433 pg/mL), Day 2, 1.0 mg/kg/h
[24] = patients with low sTREM-1 at baseline (below median 433 pg/mL), Day 2, 3.0 mg/kg/h
[25] = patients with low sTREM-1 at baseline (below median 433 pg/mL), Day 2, all nangibotide doses pooled
[26] = patients with low sTREM-1 at baseline (below median 433 pg/mL), Day 3, 0.3 mg/kg/h
[27] = patients with low sTREM-1 at baseline (below median 433 pg/mL), Day 3, 1.0 mg/kg/h

In the case of “nangibotide (LQEEDAGEYGCM; TLT-1 peptide)”, the “nangibotide efficacy by baseline sTREM-1 subgroup” value (patients with baseline sTREM-1 above the median (above 433 pg/mL), pharmacodynamic parameters, medical support, SOFA score) was “more pronounced”, the “SOFA score evolution (change versus baseline, LOCF), LSMean (SE)” value [1] was 0.16 (0.60) and the “SOFA score, estimated difference (SE) vs. placebo” value [1] was 0.14 (0.90). For the same substance, the “SOFA score evolution (change versus baseline, LOCF), LSMean (SE)” value [2] was −0.50 (0.59), the “SOFA score, estimated difference (SE) vs. placebo” value [2] was −0.52 (0.89) and the “SOFA score evolution (change versus baseline, LOCF), LSMean (SE)” value [3] was −0.38 (0.51). For the same substance, the “SOFA score, estimated difference (SE) vs. placebo” value [3] was −0.40 (0.84), the “SOFA score evolution (change versus baseline, LOCF), LSMean (SE)” value [4] was −0.24 (0.33) and the “SOFA score, estimated difference (SE) vs. placebo” value [4] was −0.26 (0.74). The “SOFA score evolution (change versus baseline, LOCF), LSMean (SE)” value [5] was −1.52 (0.80), the “SOFA score, estimated difference (SE) vs. placebo” value [5] was −1.14 (1.21) and the “SOFA score evolution (change versus baseline, LOCF), LSMean (SE)” value [6] was −2.00 (0.80). For the same substance, the “SOFA score, estimated difference (SE) vs. placebo” value [6] was −1.63 (1.19), the “SOFA score evolution (change versus baseline, LOCF), LSMean (SE)” value [7] was −0.50 (0.69) and the “SOFA score, estimated difference (SE) vs. placebo” value [7] was −0.13 (1.13). The “SOFA score evolution (change versus baseline, LOCF), LSMean (SE)” value [8] was −1.34 (0.44), the “SOFA score, estimated difference (SE) vs. placebo” value [8] was −0.97 (1.00) and the “SOFA score evolution (change versus baseline, LOCF), LSMean (SE)” value [9] was −2.73 (0.89). The “SOFA score, estimated difference (SE) vs. placebo” value [9] was −2.64 (1.34), the “SOFA score evolution (change versus baseline, LOCF), LSMean (SE)” value [10] was −2.00 (0.89) and the “SOFA score, estimated difference (SE) vs. placebo” value [10] was −1.90 (1.32). For the same substance, the “SOFA score evolution (change versus baseline, LOCF), LSMean (SE)” value [11] was −0.39 (0.77), the “SOFA score, estimated difference (SE) vs. placebo” value [11] was −0.30 (1.25) and the “SOFA score evolution (change versus baseline, LOCF), LSMean (SE)” value [12] was −1.71 (0.49). For the same substance, the “SOFA score, estimated difference (SE) vs. placebo” value [12] was −1.61 (1.11), the “SOFA score evolution (change versus baseline, LOCF), LSMean (SE)” value [13] was −3.22 (0.94) and the “SOFA score, estimated difference (SE) vs. placebo” value [13] was −2.70 (1.41). For the same substance, the “SOFA score evolution (change versus baseline, LOCF), LSMean (SE)” value [14] was −1.83 (0.93), the “SOFA score, estimated difference (SE) vs. placebo” value [14] was −1.31 (1.39) and the “SOFA score evolution (change versus baseline, LOCF), LSMean (SE)” value [15] was −0.51 (0.81). The “SOFA score, estimated difference (SE) vs. placebo” value [15] was 0.00 (1.31), the “SOFA score evolution (change versus baseline, LOCF), LSMean (SE)” value [16] was −1.85 (0.52) and the “SOFA score, estimated difference (SE) vs. placebo” value [16] was −1.34 (1.16). The “SOFA score evolution (change versus baseline, LOCF), LSMean (SE)” value (patients with high sTREM-1 at baseline (above median 433 pg/mL), Day 5, 0.3 mg/kg/h) was −3.20 (0.90), the “SOFA score, estimated difference (SE) vs. placebo” value (patients with high sTREM-1 at baseline (above median 433 pg/mL), Day 5, 0.3 mg/kg/h, 0.3 mg/kg) was −2.85 (1.36) and the “SOFA score, estimated difference (SE) vs. placebo” value (patients with high sTREM-1 at baseline (above median 433 pg/mL), Day 5, 0.3 mg/kg/h, listed as nangibotide, 0.3 mg/kg) was −2.85. For the same substance, the “SOFA score evolution (change versus baseline, LOCF), LSMean (SE)” value [17] was −1.83 (0.90), the “SOFA score, estimated difference (SE) vs. placebo” value [17] was −1.48 (1.34) and the “SOFA score evolution (change versus baseline, LOCF), LSMean (SE)” value (patients with high sTREM-1 at baseline (above median 433 pg/mL), Day 5, 3.0 mg/kg/h) was −0.51 (0.78). The “SOFA score, estimated difference (SE) vs. placebo” value (patients with high sTREM-1 at baseline (above median 433 pg/mL), Day 5, 3.0 mg/kg/h, 3 mg/kg) was −0.16 (1.27), the “SOFA score, estimated difference (SE) vs. placebo” value (patients with high sTREM-1 at baseline (above median 433 pg/mL), Day 5, 3.0 mg/kg/h, listed as nangibotide, 3 mg/kg) was −0.16 and the “SOFA score evolution (change versus baseline, LOCF), LSMean (SE)” value (patients with high sTREM-1 at baseline (above median 433 pg/mL), Day 5, all nangibotide doses pooled) was −1.85 (0.50). The “dose response of SOFA score difference vs. placebo” value (patients with high sTREM-1 at baseline, 0.3 vs 3 mg/kg/h) was “inverse dose response”, the “SOFA score evolution (change versus baseline, LOCF), LSMean (SE)” value [18] was −1.40 (0.80) and the “SOFA score, estimated difference (SE) vs. placebo” value [18] was 0.29 (1.13). For the same substance, the “SOFA score evolution (change versus baseline, LOCF), LSMean (SE)” value [19] was −0.01 (0.88), the “SOFA score, estimated difference (SE) vs. placebo” value [19] was 1.67 (1.20) and the “SOFA score evolution (change versus baseline, LOCF), LSMean (SE)” value [20] was −0.35 (1.06). For the same substance, the “SOFA score, estimated difference (SE) vs. placebo” value [20] was 1.33 (1.33), the “SOFA score evolution (change versus baseline, LOCF), LSMean (SE)” value [21] was “−.059 (0.53)” and the “SOFA score, estimated difference (SE) vs. placebo” value [21] was 1.10 (0.96). The “SOFA score evolution (change versus baseline, LOCF), LSMean (SE)” value [22] was −2.99 (0.92), the “SOFA score, estimated difference (SE) vs. placebo” value [22] was −0.86 (1.30) and the “SOFA score evolution (change versus baseline, LOCF), LSMean (SE)” value [23] was −1.62 (1.02). For the same substance, the “SOFA score, estimated difference (SE) vs. placebo” value [23] was 0.51 (1.38), the “SOFA score evolution (change versus baseline, LOCF), LSMean (SE)” value [24] was −1.87 (1.22) and the “SOFA score, estimated difference (SE) vs. placebo” value [24] was 0.26 (1.53). For the same substance, the “SOFA score evolution (change versus baseline, LOCF), LSMean (SE)” value [25] was −2.16 (0.61), the “SOFA score, estimated difference (SE) vs. placebo” value [25] was −0.03 (1.11) and the “SOFA score evolution (change versus baseline, LOCF), LSMean (SE)” value [26] was −2.68 (1.02). The “SOFA score, estimated difference (SE) vs. placebo” value [26] was −0.57 (1.44), the “SOFA score evolution (change versus baseline, LOCF), LSMean (SE)” value [27] was −1.51 (1.13) and the “SOFA score, estimated difference (SE) vs. placebo” value [27] was 0.61 (1.53).
